Results: patent US20050176806A1, “Use of substituted cyanopyrrolidines and combination preparations containing them for treating hyperlipidemia and associated diseases” (priority 2002, published 2005)

Test system: patients with a diagnosis of Type 2 diabetes mellitus
Experiment: Evaluation of the Effects of Compound IC on Human Lipid Profiles
Format: in vivo
Settings: compound IC 100 mg or 200 mg OD for four weeks, compared to placebo
Description: Evaluation of the Effects of Compound IC on Human Lipid Profiles Sixty (60) patients comprised of male and non-fertile female patients aged at least 30 years with a diagnosis of Type 2 diabetes mellitus of at least three months duration, who have been treated with diet alone for at least one month prior to study entry were selected. The study was broken down into two periods. Period 1 was the four weeks prior to the beginning of the study, with period 2 being four weeks and being the actual study period when patients were treated with compound IC. Accordingly, study entry was Week −4 and the endpoint was after the fourth week of Period 2. Patients were randomized in a ratio of 1:1:1 as follows: compound IC at 200 mg once a day (OD), compound IC at 100 mg OD and placebo. The patients received compound IC 30 minutes before breakfast. There were 5 test days in the study. Patients attended as outpatients for fasting blood sampling at Week −4 (study entry), Week −2 and Week 2 and as inpatients for 24 hours on Week 0 (=baseline) and Week 4 (=endpoint). On the two inpatient test days, the total caloric intake of breakfast, lunch and dinner was standardized and standard test meals were administered in place of breakfast and dinner. Triglycerides, total cholesterol and lipid fractions (LDL, VLDL and HDL) were measured during 24 hours following the breakfast standard meal. […] On the two inpatient test days, patients fasted for at least 7 hours, i.e., no food or drinks (except water) after midnight on the day before the scheduled visit, and attended the clinic at 07.00 h. On each of the two test days, the total caloric intake during 24 hours was standardized and standard test meals were administered for breakfast (about 08.00 h) and dinner (about 18.00 h). Lunch was taken at approximately 13.00 h. On Day 1, no compound IC was administered but at Week 4, patients took compound IC as normal, 30 minutes before the standard breakfast. Triglycerides, total cholesterol and lipid fractions (LDL, VLDL and HDL) were evaluated. Triglycerides, total cholesterol and HDL were measured and LDL and VLDL calculated according to the method of Friedewald et al., “Estimation of the Concentration of Low-Density Lipoprotein Cholesterol Without the Use of the Preparative Centrifuge”, Clin. Chem., Vol. 18, No. 6, pp. 499-502 (1972).

[1] = calculated according to Friedewald et al.
[2] = measured during 24 hours following breakfast standard meal

N#C[C@@H]1CCCN1C(=O)CNC12CC3CC(CC(O)(C3)C1)C2 [compound IC]
markedly lowered: levels of LDL [1] | levels of VLDL [1] | levels of total cholesterol [2] | levels of triglyceride [2]
